In paper PMC12345137 (mBio, 2025):
Where two headings read alike, the source gives them in different places.

Columns and labels:
[1] = biological target: S. lugdunensis agr-I (Staphylococcus lugdunensis, UniProt Q8VSW5); assay: cell-based; conditions: fluorescent reporter strain; peptides tested at 1000, 50, 2.5, 0.125 nM or in dose-response
Protocol: (§1) Peptides were evaluated for the ability to interfere with agr-mediated quorum sensing in S. aureus (AH1677, AH430, AH1747, and AH1872 for agr-I–IV, respectively) ([40]) using reporter strains expressing yellow fluorescent protein (YFP) upon agr activation. Interference with agr-mediated quorum sensing in S. epidermidis (AH3408, AH3623, and AH3409 for agr-I–III, respectively) ([45]), and S. lugdunensis (AH4031 for agr-I) ([37]) was evaluated using reporter strains expressing superfolder green fluorescent protein (sGFP) upon agr activation. Overnight cultures of the reporter strains were grown in TSB medium containing chloramphenicol (CAM, 10 μg/mL for S. aureus) or erythromycin (ERM, 10 μg/mL of S. epidermidis and S. lugdunensis) and diluted 1:100 in fresh TSB medium containing the same antibiotic. Assays were performed in sterile black 96-well plates with a clear bottom. […] DMSO stock solutions of peptides (1 mM) were diluted in TSB media and added (15 μL) in technical triplicate to the 96-well plate, followed by diluted bacterial overnight cultures (135 μL). Control wells for 100% agr activity were wells replacing the peptide solution with TSB medium (15 μL). […] Wells containing 150 μL TSB medium were used to measure background fluorescence. The 96-well plates were incubated in a humidified incubator at 37°C shaking at 1,000 rpm for 22–24 h and fluorescence (for GFP: excitation 479 nm, emission 520 nm; for YFP: excitation 500 nm, emission 541 nm; automatic gain), and OD600 values were subsequently measured using a plate reader. Background fluorescence was subtracted from all wells and further normalized to the corresponding OD600 value of the respective wells. The average fluorescence of control wells was used as a relative measure for 100% activation of the agr-circuit, and bar graphs were generated using GraphPad Prism 10.4 software. All assays were performed in at least a biological duplicate.
(§2) Overnight cultures of the reporter strains were grown in TSB medium containing chloramphenicol (CAM, 10 μg/mL for S. aureus) or erythromycin (ERM, 10 μg/mL of S. epidermidis and S. lugdunensis) and diluted 1:100 in fresh TSB medium containing the same antibiotic. Assays were performed in sterile black 96-well plates with clear bottoms. Peptide solutions (15 μL) in 1:5 serial dilutions from DMSO stock solutions (1 mM) in TSB medium were added to the 96-well plate in technical duplicate followed by diluted bacterial overnight cultures (135 μL). Control wells for 100% agr activity were wells replacing the peptide solution with TSB medium (15 μL). Wells containing 150 μL TSB medium were used to measure background fluorescence. The 96-well plates were incubated in a humidified incubator at 37°C shaking at 1,000 rpm for 22–24 h and fluorescence (for GFP: excitation 479 nm, emission 520 nm; for YFP: excitation 500 nm, emission 541 nm; automatic gain), and OD600 values were subsequently measured using a plate reader. Background fluorescence was subtracted from all wells and further normalized to the corresponding OD600 value of the respective wells. The average fluorescence of control wells was used as a relative measure for 100% activation of the agr-circuit. Relative agr activity was plotted to obtain IC50 values by non-linear regression with variable slope using GraphPad Prism 10.4 software. All assays were performed in biological triplicate.

[2] = system: S. aureus (SA) agr-II; conditions: fluorescence, cited from earlier work; for IC50: ref (13)
[3] = system: S. aureus (SA) agr-I; conditions: fluorescence, cited from earlier work; for IC50: ref (13)
[4] = system: S. epidermidis (SE) agr-III; conditions: fluorescence, cited from earlier work; for IC50: ref (13)
[5] = system: S. aureus (SA) agr-III; conditions: fluorescence, cited from earlier work; for IC50: ref (13)
[6] = biological target: T1, SA AgrC-IV (Staphylococcus aureus, UniProt Q309Z2); assay: β-Lactamase assay, reporter strain RN10829 (P2-agrA:P3-blaZ) with pagrC-IV; format: cell-based; conditions: 100 nM cognate AIP; ± SEM; -b = no inhibition recorded at the highest AIP concentration tested; -a = only partial inhibition observed; this study (curves in Fig. S22)
Source text: (§3) The β-lactamase reporter strain RN10829 (P2-agrA:P3-blaZ) ([62]), with pagrC-I ([63]), pagrC-II, pagrC-III, or pagrC-IV ([11]), substituting the native agr locus with a chromosomal integration of P2-agrA and P3-blaZ and a plasmid from which a wild-type variant of the corresponding AgrC is expressed, was used to assess inhibition and activation of the AgrC receptor via β-lactamase activity in response to varying concentrations of the QS modulating peptides. Overnight cultures of the reporter strains in TSB medium were diluted 1:250 in fresh TSB medium and grown to OD600 = 0.35–0.40 (early exponential phase) at 37°C. Peptide solutions (10 μL) in 1:10 serial dilutions from DMSO stock solutions (1 mM) in TSB medium (final concentrations = 10 μM–10 pM) were added to each well of a clear 96-well plate as well as solutions (10 μL) of cognate AIP (final concentration = 100 nM) in TSB medium followed by 80 μL of bacterial cells. Control wells for 100% β-lactamase activity were wells replacing peptide solution with TSB media (10 μL), and control wells for 0% β-lactamase activity were wells replacing both peptide and cognate AIP solutions with TSB medium (20 μL). The 96-well plates were incubated at 37°C shaking at 200 rpm for 1 h and immediately frozen down at −80°C to minimize growth during nitrocefin treatment. Next, the 96-well plates were thawed, and OD600 values were determined using a plate reader followed by the addition of 50 μL of nitrocefin solution to the wells (final concentration = 33.3 μg/mL). β-Lactamase activity was monitored at OD486 every 20 s for 10 min at 37°C using a plate-reader. Linear nitrocefin conversion rates were plotted to obtain IC50 values by non-linear regression with variable slope using GraphPad Prism 10.4 software. Assays were performed at least as duplicate determinations in biological triplicate.

[7] = system: S. epidermidis (SE) agr-II; conditions: fluorescence, cited from earlier work; for IC50: ref (13)
[8] = biological target: T2, SA AgrC-II (Staphylococcus aureus, UniProt O33587); assay: β-Lactamase assay, reporter strain RN10829 (P2-agrA:P3-blaZ) with pagrC-II; format: cell-based; conditions: 100 nM cognate AIP; ± SEM; -b = no inhibition recorded at the highest AIP concentration tested; -a = only partial inhibition observed; this study (curves in Fig. S20)
Source text: as §3

[9] = system: S. aureus (SA) agr-IV; conditions: fluorescence, cited from earlier work; for IC50: ref (13)
[10] = system: S. epidermidis (SE) agr-I; conditions: fluorescence, cited from earlier work
[11] = biological target: T3, SA AgrC-III (Staphylococcus aureus, UniProt O33590); assay: β-Lactamase assay, reporter strain RN10829 (P2-agrA:P3-blaZ) with pagrC-III; format: cell-based; conditions: 100 nM cognate AIP; ± SEM; -b = no inhibition recorded at the highest AIP concentration tested; -a = only partial inhibition observed; this study (curves in Fig. S21)
Source text: as §3

[12] = biological target: T2, SA AgrC-II; conditions: 100 nM cognate AIP, ± SEM, -b = no inhibition recorded at the highest AIP concentration tested, determined previously, ref (1), cited from earlier work; for IC50: read-out: IC50, SA AgrC-II, b-lactamase assay
[13] = biological target: T3, SA AgrC-III; conditions: 100 nM cognate AIP, ± SEM, determined previously, ref (1), cited from earlier work
[14] = biological target: S. aureus agr-IV (Staphylococcus aureus, UniProt Q309Z2); assay: cell-based; format: cell-based; conditions: fluorescent reporter strain; peptides tested at 1000, 50, 2.5, 0.125 nM or in dose-response
Protocol: as §1, §2

[15] = biological target: T1, SA AgrC-IV; conditions: ± SEM, determined previously, ref (1), cited from earlier work; for EC50: read-out: EC50, SA AgrC-IV, b-lactamase assay; for IC50, SA AgrC-IV, b-lactamase assay: 100 nM cognate AIP, -b = no inhibition recorded at the highest AIP concentration tested
[16] = only partial inhibition observed, read-out: IC50, SA AgrC-III, b-lactamase assay, only partial inhibition observed (footnote a)
[17] = -b = no inhibition recorded at the highest AIP concentration tested

T3 sequence (O33590 entry or part of it): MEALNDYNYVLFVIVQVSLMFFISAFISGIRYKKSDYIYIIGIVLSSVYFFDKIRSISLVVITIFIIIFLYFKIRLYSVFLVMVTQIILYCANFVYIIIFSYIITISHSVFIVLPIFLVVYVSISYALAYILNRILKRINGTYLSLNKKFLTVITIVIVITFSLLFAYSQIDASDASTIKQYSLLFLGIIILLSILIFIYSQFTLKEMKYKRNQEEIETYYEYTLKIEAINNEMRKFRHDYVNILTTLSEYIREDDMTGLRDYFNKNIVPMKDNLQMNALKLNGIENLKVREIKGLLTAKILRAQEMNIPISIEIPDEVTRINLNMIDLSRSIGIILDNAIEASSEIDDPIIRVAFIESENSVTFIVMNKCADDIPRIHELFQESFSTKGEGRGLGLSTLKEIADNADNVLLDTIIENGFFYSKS
T1 sequence (Q309Z2 entry or part of it): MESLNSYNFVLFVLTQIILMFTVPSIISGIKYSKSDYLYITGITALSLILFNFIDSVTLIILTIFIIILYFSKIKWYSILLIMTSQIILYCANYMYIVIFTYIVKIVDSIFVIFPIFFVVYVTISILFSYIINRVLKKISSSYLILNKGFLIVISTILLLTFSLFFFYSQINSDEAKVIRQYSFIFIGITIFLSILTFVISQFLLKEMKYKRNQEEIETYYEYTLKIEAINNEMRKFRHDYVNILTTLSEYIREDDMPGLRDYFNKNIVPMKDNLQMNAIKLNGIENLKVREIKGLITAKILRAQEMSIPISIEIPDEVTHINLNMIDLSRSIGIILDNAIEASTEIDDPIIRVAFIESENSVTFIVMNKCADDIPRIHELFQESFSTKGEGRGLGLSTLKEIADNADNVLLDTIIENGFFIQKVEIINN
T2 sequence (O33587 entry or part of it): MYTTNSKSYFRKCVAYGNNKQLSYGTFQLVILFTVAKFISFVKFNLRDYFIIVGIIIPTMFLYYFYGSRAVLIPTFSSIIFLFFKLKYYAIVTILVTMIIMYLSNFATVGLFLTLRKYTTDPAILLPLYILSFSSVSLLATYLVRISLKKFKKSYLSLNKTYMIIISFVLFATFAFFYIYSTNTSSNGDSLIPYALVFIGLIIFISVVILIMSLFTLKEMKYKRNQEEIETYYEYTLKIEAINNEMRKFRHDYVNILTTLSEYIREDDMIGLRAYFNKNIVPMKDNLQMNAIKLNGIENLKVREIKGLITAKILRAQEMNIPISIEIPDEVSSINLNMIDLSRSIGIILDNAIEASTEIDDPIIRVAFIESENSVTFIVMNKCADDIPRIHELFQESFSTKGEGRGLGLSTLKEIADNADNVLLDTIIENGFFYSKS
S. lugdunensis agr-I, sequence (Q8VSW5 entry or part of it): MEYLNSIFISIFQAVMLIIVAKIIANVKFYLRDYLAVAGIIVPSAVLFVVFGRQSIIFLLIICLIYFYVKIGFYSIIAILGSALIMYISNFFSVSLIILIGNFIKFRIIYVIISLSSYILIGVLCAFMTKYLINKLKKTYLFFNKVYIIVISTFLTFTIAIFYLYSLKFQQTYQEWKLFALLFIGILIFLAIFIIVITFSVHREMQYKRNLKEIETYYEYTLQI
S. aureus agr-IV, sequence (Q309Z2 entry or part of it): as the sequence (Q309Z2 entry or part of it) above

Question: For “S. Simulans AIP-II/III N-Me2 [compound 56]”, which “QS interaction in words (inhibition / activation), S. lugdunensis agr-I” value [1] is on record?
Answer: remained highly potent

Question: Which “inhibition at 100 nM, SA agr-II” value ([2]; at 100 nM, ref (11)) does the source give for S. epidermidis AIP-II [compound 6] here?
Answer: no inhibition

Question: And the “inhibition at 100 nM, SA agr-I” value ([3]; at 100 nM, ref (11))?
Answer: no inhibition

Question: What about the “effect at 10 µM, SE agr-III” value ([4]; at 10 µM, ref (11)) of the same substance?
Answer: no effect

Question: What about the “effect from supernatant (% inhibition, activation or no effect), SE agr-III” value ([4]; from supernatant, ref (18)) of the same substance?
Answer: no effect

Question: What about the “inhibition at 100 nM, SA agr-III” value ([5]; at 100 nM, ref (11)) of the same substance?
Answer: no inhibition

Question: And the “IC50, SA AgrC-IV, b-lactamase assay” value [6]?
Answer: -b

Question: And the “effect at 10 µM, SE agr-II” value ([7]; at 10 µM, ref (11))?
Answer: activation

Question: What about the “effect from supernatant (% inhibition, activation or no effect), SE agr-II” value ([7]; from supernatant, ref (18)) of the same substance?
Answer: activation

Question: What about the “IC50, SA AgrC-II, b-lactamase assay” value [8] of the same substance?
Answer: -b

Question: What about the “inhibition at 100 nM, SA agr-IV” value ([9]; at 100 nM, ref (11)) of the same substance?
Answer: no inhibition

Question: And the “effect from supernatant (% inhibition, activation or no effect), SE agr-I” value ([10]; from supernatant, ref (18))?
Answer: ~ 90%

Question: And the IC50 ([10]; ref (11))?
Answer: 9.64 nM

Question: What about the “IC50, SA AgrC-III, b-lactamase assay” value [11] of the same substance?
Answer: -b

Question: With S. haemolyticus AIP-I [compound 15] as the substance, how does the “IC50, SA AgrC-II, b-lactamase assay” value [12] read?
Answer: -b

Question: And the IC50 ([13]; -b = no inhibition recorded at the highest AIP concentration tested, read-out: IC50, SA AgrC-III, b-lactamase assay)?
Answer: 340 ± 91 nM

Question: Which results are given for S. hominis AIP-II [compound 11]?
Answer: IC50 [2]: 2110 nM; IC50 [3]: 15 nM; IC50 [4]: 62 nM; IC50 [5]: 3 nM; IC50 [7]: 19 nM; IC50 [9]: 1130 nM; IC50 ([10]; ref (13)): 20 nM

Question: With S. hominis AIP-III [compound 12] as the substance, how does the IC50 [2] read?
Answer: 4 nM

Question: What about the IC50 [3] of the same substance?
Answer: 11 nM

Question: And the IC50 [4]?
Answer: 3 nM

Question: What about the “QS interaction in words (inhibition / activation), S. aureus agr-IV” value [14] of the same substance?
Answer: activated

Question: What about the IC50 [5] of the same substance?
Answer: 6 nM

Question: And the IC50 [7]?
Answer: 3 nM

Question: And the EC50 [15]?
Answer: 54 ± 5 nM

Question: What about the IC50 [12] of the same substance?
Answer: 580 ± 61 nM

Question: What about the IC50 [13, 16] of the same substance?
Answer: 220 ± 46 nM

Question: What about the IC50 ([10]; ref (13)) of the same substance?
Answer: 4 nM

Question: Which results are given for S. hominis AIP-IV [compound 13]?
Answer: IC50 [2]: 140 nM; IC50 [3]: 128 nM; IC50 [4]: 28 nM; IC50 [5]: 37 nM; IC50 [7]: 93 nM; IC50 ([10]; ref (13)): 237 nM

Question: For S. hominis AIP-V [compound 14], which IC50 [2] is on record?
Answer: 59 nM

Question: And the IC50 [3]?
Answer: 43 nM

Question: And the IC50 [4]?
Answer: 2 nM

Question: What about the IC50 [5] of the same substance?
Answer: 4 nM

Question: What about the IC50 [7] of the same substance?
Answer: 22 nM

Question: What about the IC50 [9] of the same substance?
Answer: 3810 nM

Question: And the IC50 ([10]; ref (13))?
Answer: 10 nM

Question: What does the source list for S. lugdunensis AIP-II [compound 9]?
Answer: IC50, SA AgrC-IV, b-lactamase assay [15]: -b; IC50, SA AgrC-II, b-lactamase assay [12]: -b; IC50, SA AgrC-III, b-lactamase assay [13, 17]: -b

Question: Which “IC50, SA AgrC-IV, b-lactamase assay” value [15] does the source give for S. saprophyticus AIP-I [compound 19] here?
Answer: -b

Question: What about the “IC50, SA AgrC-III, b-lactamase assay” value [13, 17] of the same substance?
Answer: -b

Question: For S. schleiferi AIP-I [compound 30], which EC50 [15] is on record?
Answer: 31 ± 6 nM

Question: And the IC50 [12]?
Answer: 86 ± 6 nM

Question: And the IC50 [13, 16]?
Answer: 80 ± 16 nM
